Experimental data: BindingDB's records for patent WO2025049746 (Eikon Therapeutics, 2025)
pIC50: −log10 of the molar value.

Assays:
[1] = molecular target: Bifunctional 3'-5' exonuclease/ATP-dependent helicase WRN (Homo sapiens, UniProt Q14191); assay: ADP-Glo Kinase Assay
Procedure: ATPase activity was measured using the ADP-Glo Kinase Assay following the manufacturers recommended protocol.

[2] = molecular target: T1, Bifunctional 3'-5' exonuclease/ATP-dependent helicase WRN [480-1251] (UniProt Q14191); assay: Biochemical Activity Assays
T1 construct: 480-1251
T1 sequence (Q14191 480-1251): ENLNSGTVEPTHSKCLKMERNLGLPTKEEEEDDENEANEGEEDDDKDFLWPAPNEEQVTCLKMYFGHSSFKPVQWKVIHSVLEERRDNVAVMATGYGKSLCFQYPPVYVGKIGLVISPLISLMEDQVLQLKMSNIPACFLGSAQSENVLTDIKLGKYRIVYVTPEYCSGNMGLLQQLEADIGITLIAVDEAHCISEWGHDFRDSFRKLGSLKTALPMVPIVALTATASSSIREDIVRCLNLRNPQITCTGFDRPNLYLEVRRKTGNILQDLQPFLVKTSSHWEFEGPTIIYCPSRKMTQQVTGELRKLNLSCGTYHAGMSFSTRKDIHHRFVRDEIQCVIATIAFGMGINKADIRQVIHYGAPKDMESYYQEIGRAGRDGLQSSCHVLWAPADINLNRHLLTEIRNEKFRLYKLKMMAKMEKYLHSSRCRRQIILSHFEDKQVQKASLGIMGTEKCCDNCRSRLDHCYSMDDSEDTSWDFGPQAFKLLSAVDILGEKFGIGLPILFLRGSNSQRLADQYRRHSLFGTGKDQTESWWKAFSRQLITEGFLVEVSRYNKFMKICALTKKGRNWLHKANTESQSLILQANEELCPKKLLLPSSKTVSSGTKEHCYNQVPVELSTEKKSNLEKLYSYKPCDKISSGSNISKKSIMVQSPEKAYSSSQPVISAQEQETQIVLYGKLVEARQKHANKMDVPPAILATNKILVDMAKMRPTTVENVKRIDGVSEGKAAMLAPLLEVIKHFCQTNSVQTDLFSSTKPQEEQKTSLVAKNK

Chain of Bifunctional 3'-5' exonuclease/ATP-dependent helicase WRN (Q14191 whole entry): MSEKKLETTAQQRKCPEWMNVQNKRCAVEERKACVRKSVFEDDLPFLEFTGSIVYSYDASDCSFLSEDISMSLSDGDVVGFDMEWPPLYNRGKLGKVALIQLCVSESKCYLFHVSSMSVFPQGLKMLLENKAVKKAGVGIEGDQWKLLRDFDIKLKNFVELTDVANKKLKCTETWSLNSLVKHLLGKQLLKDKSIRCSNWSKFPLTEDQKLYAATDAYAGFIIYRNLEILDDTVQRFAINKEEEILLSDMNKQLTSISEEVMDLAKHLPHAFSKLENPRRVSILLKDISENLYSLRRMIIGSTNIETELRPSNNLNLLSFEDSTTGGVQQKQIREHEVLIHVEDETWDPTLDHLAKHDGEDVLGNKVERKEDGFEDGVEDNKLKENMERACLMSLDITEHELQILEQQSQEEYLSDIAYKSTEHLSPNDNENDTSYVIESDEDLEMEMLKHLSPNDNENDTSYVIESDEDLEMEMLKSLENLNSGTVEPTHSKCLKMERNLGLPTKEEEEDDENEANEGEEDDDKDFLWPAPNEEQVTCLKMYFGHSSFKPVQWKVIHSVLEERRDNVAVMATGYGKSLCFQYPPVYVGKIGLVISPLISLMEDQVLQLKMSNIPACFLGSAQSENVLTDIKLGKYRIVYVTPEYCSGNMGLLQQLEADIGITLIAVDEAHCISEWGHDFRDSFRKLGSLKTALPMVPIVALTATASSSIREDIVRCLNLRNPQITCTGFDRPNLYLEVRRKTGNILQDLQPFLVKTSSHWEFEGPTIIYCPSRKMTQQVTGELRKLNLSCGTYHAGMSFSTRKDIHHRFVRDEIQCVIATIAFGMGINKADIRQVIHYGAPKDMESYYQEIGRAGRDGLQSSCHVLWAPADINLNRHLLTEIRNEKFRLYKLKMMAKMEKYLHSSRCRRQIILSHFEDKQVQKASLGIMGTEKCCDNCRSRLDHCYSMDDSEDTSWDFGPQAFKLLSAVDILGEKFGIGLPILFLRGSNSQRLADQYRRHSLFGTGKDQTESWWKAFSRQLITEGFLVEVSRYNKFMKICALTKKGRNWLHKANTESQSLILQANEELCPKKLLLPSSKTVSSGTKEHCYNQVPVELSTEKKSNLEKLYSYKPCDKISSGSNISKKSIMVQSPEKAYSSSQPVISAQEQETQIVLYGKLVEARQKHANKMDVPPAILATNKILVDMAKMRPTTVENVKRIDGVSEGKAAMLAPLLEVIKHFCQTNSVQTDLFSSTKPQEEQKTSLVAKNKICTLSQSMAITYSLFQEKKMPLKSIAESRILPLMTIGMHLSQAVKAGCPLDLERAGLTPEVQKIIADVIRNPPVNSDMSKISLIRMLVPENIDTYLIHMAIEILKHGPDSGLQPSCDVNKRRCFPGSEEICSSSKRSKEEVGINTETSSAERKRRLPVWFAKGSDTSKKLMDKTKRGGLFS

CCc1c(N2CCN(C(=O)c3ncnc(C)c3O)CC2)c(=O)n2nc(-c3ccc4c(c3)CCC4OC(F)F)nc2n1CC(=O)Nc1ccc(C(F)(F)F)cc1Cl (centres undefined) [WO2025049746, Example 227]
pIC50 [1]: 7.02 | pIC50 [2]: 7.05

CCc1c(N2CCCC3C2CCN3C(=O)c2ncnc(C)c2O)c(=O)n2nc(C3=CCOCC3)nc2n1CC(=O)Nc1ccc(C(F)(F)F)cc1Cl (centres undefined) [WO2025049746, Example 345]
pIC50 [1]: 5.13 | pIC50 [2]: 4.53

CCc1c(N2CCN(C(=O)c3ncnc(C)c3O)CC2)c(=O)n2nc(-c3ccc(S(=O)(=O)N4CCC4)cc3)nc2n1CC(=O)Nc1ccc(C(F)(F)F)cc1Cl [WO2025049746, Example 270]
pIC50 [1]: 7.72 | pIC50 [2]: 7.74

CCc1c(N2CCN(C(=O)c3nocc3O)CC2)c(=O)n2nc(-c3ccc4c(c3)COC4)nc2n1CC(=O)Nc1ccc(C(F)(F)F)cc1Cl [WO2025049746, Example 439]
pIC50 [1]: 7.30 | pIC50 [2]: 7.28

CCc1c(N2CCN(C(=O)c3ncnc(C)c3O)CC2)c(=O)n2nc(-c3ccc4c(c3)CC(C)(C)N4C(C)=O)nc2n1CC(=O)Nc1ccc(C(F)(F)F)cc1Cl [WO2025049746, Example 296]
pIC50 [1]: 7.44 | pIC50 [2]: 7.42

CCc1c(N2CCN(C(=O)c3nccc4nc[nH]c34)CC2)c(=O)n2nc(-c3ccc4c(c3)COC4(C)C)nc2n1CC(=O)Nc1ccc(C(F)(F)F)cc1Cl [WO2025049746, Example 456]
pIC50 [1]: 7.24 | pIC50 [2]: 7.26

CCc1c(N2CCN(C(=O)c3ccnc4cc[nH]c34)CC2)c(=O)n2nc(C3=CCOCC3)nc2n1CC(=O)Nc1ccc(C(F)(F)F)cc1Cl [WO2025049746, Example 46]
pIC50 [1]: 7.28 | pIC50 [2]: 7.44

CCc1c(N2CCN(C(=O)c3cc4nnn(C)c4cc3OC)CC2)c(=O)n2nc(-c3ccc4c(c3)COC4)nc2n1CC(=O)Nc1ccc(C(F)(F)F)cc1Cl [WO2025049746, Example 429]
pIC50 [1]: 6.93 | pIC50 [2]: 7.03

CCc1c(N2CCN(C(=O)c3ccccc3NS(=O)(=O)C3CC3)CC2)c(=O)n2nc(-c3ccc4c(c3)OCO4)nc2n1CC(=O)Nc1ccc(C(F)(F)F)cc1Cl [WO2025049746, Example 87]
pIC50 [1]: 6.80 | pIC50 [2]: 6.86

CCc1c(N2CCN(C(=O)c3ncnc(C)c3O)CC2)c(=O)n2nc(N3CC4(COC4)C3)nc2n1CC(=O)Nc1ccc(C(F)(F)F)cc1Cl [WO2025049746, Example 26]
pIC50 [1]: 7.11 | pIC50 [2]: 7.21

CCc1c(N2CCN(C(=O)c3ncnc(C)c3O)CC2)c(=O)n2nc(-c3ccn4nc(C)cc4c3)nc2n1CC(=O)Nc1ccc(C(F)(F)F)cc1Cl [WO2025049746, Example 247]
pIC50 [1]: 7.59 | pIC50 [2]: 7.57

CCc1c(N2CCN(C(=O)c3cccc4c3NS(=O)(=O)C=C4)CC2)c(=O)n2nc(-c3ccc4c(c3)COC4)nc2n1CC(=O)Nc1ccc(C(F)(F)F)cc1Cl [WO2025049746, Example 426]
pIC50 [1]: 7.47 | pIC50 [2]: 7.60

CCc1c(N2CCN(C(=O)c3ccccc3NS(=O)(=O)C3CC3)CC2)c(=O)n2nc(N3C[C@H]4COC[C@H]4C3)nc2n1CC(=O)Nc1ccc(C(F)(F)F)cc1Cl [WO2025049746, Example 94]
pIC50 [1]: 7.58 | pIC50 [2]: 7.63

CCc1c(N2CCN(C(=O)c3ccccc3NS(=O)(=O)C3CC3)CC2)c(=O)n2nc(-c3ccc4c(c3)CCOC4)nc2n1CC(=O)Nc1ccc(C(F)(F)F)c2c1CC2 [WO2025049746, Example 110]
pIC50 [1]: 6.33 | pIC50 [2]: 6.43

CCc1c(N2CCN(C(=O)c3ncnc(C)c3O)CC2)c(=O)n2nc(-c3ccc4c(c3)C[C@H](C)O4)nc2n1CC(=O)Nc1ccc(C(F)(F)F)cc1Cl [WO2025049746, Example 230]
pIC50 [1]: 7.41 | pIC50 [2]: 7.35

CCc1c(N2CCN(C(=O)c3ncnc(C)c3O)CC2)cn2nc(C3=CCOCC3)nc2c1CC(=O)Nc1ccc(C(F)(F)F)cc1Cl [WO2025049746, Example 374]
pIC50 [1]: 4.53 | pIC50 [2]: 4.53

CCc1c(N2CCN(C(=O)c3nsc(N4CCOCC4)c3O)CC2)c(=O)n2nc(-c3ccc4c(c3)COC4)nc2n1CC(=O)Nc1ccc(C(F)(F)F)cc1Cl [WO2025049746, Example 445]
pIC50 [1]: 7.14 | pIC50 [2]: 7.15

CCc1c(N2CCN(C(=O)c3ncnc(C)c3O)CC2)c(=O)n2nc(-c3cccc4nc(C)oc34)nc2n1CC(=O)Nc1ccc(C(F)(F)F)cc1Cl [WO2025049746, Example 23]
pIC50 [1]: 7.36 | pIC50 [2]: 7.52

CCc1c(N2CCN(C(=O)c3ncnc(C)c3O)CC2)c(=O)n2nc(-c3ccn4ncc(F)c4c3)nc2n1CC(=O)Nc1ccc(C(F)(F)F)cc1Cl [WO2025049746, Example 326]
pIC50 [1]: 7.62 | pIC50 [2]: 7.59

CCc1c(N2CCN(C(=O)c3ncnc(C)c3O)CC2)c(=O)n2nc(-c3ccc4c(c3)C(C)(C)OC4(C)C)nc2n1CC(=O)Nc1ccc(C(F)(F)F)cc1Cl [WO2025049746, Example 172]
pIC50 [1]: 6.91 | pIC50 [2]: 7.06

CCc1c(N2CCN(S(C)(=O)=O)CC2)c(=O)n2nc(C3=CCOCC3)nc2n1CC(=O)Nc1ccc(C(F)(F)F)cc1Cl [WO2025049746, Example 59]
pIC50 [1]: 7.08 | pIC50 [2]: 7.48

CCc1c(N2CCN(C(=O)c3ncnc(C)c3O)CC2)c(=O)n2nc(-c3cn4c(n3)COCC4)nc2n1CC(=O)Nc1ccc(C(F)(F)F)cc1Cl [WO2025049746, Example 153]
pIC50 [1]: 6.77 | pIC50 [2]: 6.78

CCc1c(N2CCN(C(=O)c3ncnc(C)c3O)CC2)c(=O)n2nc(-c3cnc4c(c3)CCOC4)nc2n1CC(=O)Nc1ccc(C(F)(F)F)cc1Cl [WO2025049746, Example 162]
pIC50 [1]: 7.09 | pIC50 [2]: 7.19

CCc1c(N2CCN(C(=O)c3cccc4c3ncn4C)CC2)c(=O)n2nc(C3=CCOCC3)nc2n1CC(=O)Nc1ccc(C(F)(F)F)cc1Cl [WO2025049746, Example 44]
pIC50 [1]: 7.08 | pIC50 [2]: 7.29

CCc1c(N2CCN(C(=O)c3ncnc(C)c3O)CC2)c(=O)n2nc(-c3ccc4c(c3)CC[C@H]4OC(F)F)nc2n1CC(=O)Nc1ccc(C(F)(F)F)cc1Cl [WO2025049746, Example 226]
pIC50 [1]: 7.13 | pIC50 [2]: 7.01

CCc1c(N2CCN(C(=O)c3ncnc(C)c3O)CC2)c(=O)n2nc(-c3ccc4nc(N)oc4c3)nc2n1CC(=O)Nc1ccc(C(F)(F)F)cc1Cl [WO2025049746, Example 284]
pIC50 [1]: 7.60 | pIC50 [2]: 7.59

CCc1c(N2CCN(C(=O)c3ncnc(C)c3O)CC2)c(=O)n2nc(N(C)C)nc2n1CC(=O)Nc1ccc(C(F)(F)F)cc1Cl [WO2025049746, Example 30]
pIC50 [1]: 7.28 | pIC50 [2]: 7.43

CCc1c(N2CCN(C(=O)c3ncnc(C)c3O)CC2)c(=O)n2nc(-c3ccc4c(c3)[C@@H](C(F)(F)F)OC4)nc2n1CC(=O)Nc1ccc(C(F)(F)F)cc1Cl [WO2025049746, Example 275]
pIC50 [1]: 7.10 | pIC50 [2]: 7.04

Cc1ncnc(C(=O)N2CCN(c3c4n(c5nc(-c6ccc7c(c6)COC7(C)C)nn5c3=O)[C@@H](C(=O)Nc3ccc(C(F)(F)F)cc3Cl)C[C@@H]4C)[C@H]3CC[C@@H]32)c1O [WO2025049746, Example 466]
pIC50 [1]: < 4.53 | pIC50 [2]: 5.03

CCc1c(N2CCN(C(=O)c3ncnc(C)c3O)CC2)c(=O)n2nc(N(C)C)nc2n1CC(=O)Nc1ccc(C(F)(F)F)c2c1CC2 [WO2025049746, Example 104]
pIC50 [1]: 7.57 | pIC50 [2]: 7.64

CCCn1cc2cc(-c3nc4n(CC(=O)Nc5ccc(C(F)(F)F)cc5Cl)c(CC)c(N5CCN(C(=O)c6ncnc(C)c6O)CC5)c(=O)n4n3)ccc2n1 [WO2025049746, Example 302]
pIC50 [1]: 7.54 | pIC50 [2]: 7.46

CCc1c(N2CCN(C(=O)c3ncnc(C)c3O)CC2)c(=O)n2nc(-c3cc(C)c4c(c3)COC4)nc2n1CC(=O)Nc1ccc(C(F)(F)F)cc1Cl [WO2025049746, Example 206]
pIC50 [1]: 7.48 | pIC50 [2]: 7.55

CCc1c(N2CCN(C(=O)c3ncnc(C)c3O)CC2)c(=O)n2nc(-c3cccc4sc(C)nc34)nc2n1CC(=O)Nc1ccc(C(F)(F)F)cc1Cl [WO2025049746, Example 156]
pIC50 [1]: 7.28 | pIC50 [2]: 7.43

CCc1c(N2CCN(C(=O)c3ncnc(C)c3O)CC2)c(=O)n2nc(-c3ccc4ncncc4c3)nc2n1CC(=O)Nc1ccc(C(F)(F)F)cc1Cl [WO2025049746, Example 263]
pIC50 [1]: 7.62 | pIC50 [2]: 7.64

CCc1c(N2CCN(C(=O)c3ncnc(C)c3O)CC2)c(=O)n2nc(-c3cc4c(cc3F)O[C@@H](C)C4)nc2n1CC(=O)Nc1ccc(C(F)(F)F)cc1Cl [WO2025049746, Example 249]
pIC50 [1]: 7.60 | pIC50 [2]: 7.59

CCc1c(N2CCN(C(=O)c3cncc4cc[nH]c34)CC2)c(=O)n2nc(C3=CCOCC3)nc2n1CC(=O)Nc1ccc(C(F)(F)F)cc1Cl [WO2025049746, Example 47]
pIC50 [1]: 7.50 | pIC50 [2]: 7.62

CCc1c(N2CCN(C(=O)c3ncnc(C)c3O)CC2)c(=O)n2nc(C3=CCOCC3)nc2n1CC(=O)Nc1ccc(C(F)(F)F)c2cccnc12 [WO2025049746, Example 365]
pIC50 [1]: 7.20 | pIC50 [2]: 7.36

CCc1c(N2CCN(C(=O)c3ncnc(C)c3O)CC2)c(=O)n2nc(-c3cccc4c3OCO4)nc2n1CC(=O)Nc1ccc(SC(F)(F)F)cc1Cl [WO2025049746, Example 400]
pIC50 [1]: 6.89 | pIC50 [2]: 6.99

CCc1c(N2CCN(C(=O)c3ncnc(C)c3O)CC2)c(=O)n2nc(-c3ccc4nn(C(C)C)cc4c3)nc2n1CC(=O)Nc1ccc(C(F)(F)F)cc1Cl [WO2025049746, Example 262]
pIC50 [1]: 7.52 | pIC50 [2]: 7.51

CCc1c(N2CCN(C(=O)c3ncnc(C)c3O)CC2)c(=O)n2nc(-c3cc(F)c4c(c3)COC4)nc2n1CC(=O)Nc1ccc(C(F)(F)F)cc1Cl [WO2025049746, Example 202]
pIC50 [1]: 7.40 | pIC50 [2]: 7.49

CCc1c(N2CCN(C(=O)c3ncnc(C)c3O)CC2)c(=O)n2nc(N3CCCn4nccc43)nc2n1CC(=O)Nc1ccc(C(F)(F)F)cc1Cl [WO2025049746, Example 31]
pIC50 [1]: 7.34 | pIC50 [2]: 7.54

CCc1c(N2CCN(C(=O)c3ncnc(C)c3O)CC2)c(=O)n2nc(-c3cc(OC(F)F)n4nccc4c3F)nc2n1CC(=O)Nc1ccc(C(F)(F)F)cc1Cl [WO2025049746, Example 317]
pIC50 [1]: 7.12 | pIC50 [2]: 7.03
